According to patent US9388139B2, “Derivatives of celeboxib, use thereof and preparation thereof” (German University, priority 2011, dated 2016):

Experiments:
Test in all cases: Tumor cell growth inhibition panel
Assay type in all cases: cell-based
PC-3 = conditions: Homo sapiens, Prostate
Procedure: (§1) Thus, compound 12 is able to show broad spectrum tumor cell growth inhibitory activity independent of cyclooxygenase inhibition, whereas PDE5 may be the major contributor to such activity.
(§2) The human tumor cell lines were purchased from the American Type Culture Collection (Mansassas, Va.) and maintained in RPMI-1640+2.0 g/L glucose pH 7.4+5% FBS+4 mM glutamine (complete growth medium), incubated at 37° C. in 5% CO2, and passaged at subconfluent density. The human fetal colon FHC cells were cultured in DMEM:F12 medium supplemented with 10% FBS, cholera toxin (10 ng/mL), 5 μg/ml transferrin, 5 μg/ml insulin, and 100 ng/ml hydrocortisone. The passage number was routinely limited to approximately 20 and morphology monitored with each passage, but no additional authentication of the cell lines was performed.
(§3) Cells were plated in 96-well microtiter plates at a density of 5,000 cells per well and allowed to adhere overnight prior to treatment. Cells were treated with a 2-log concentration range of either SS or SBA and incubated for an additional 72 hours. For siRNA assays, cells were transfected in OptiMEM media with 0.5% SureFECT transfection reagent and 200 nmol/L of either negative control or PDE5 siRNA and incubated at 37° C. for 24 h prior to treatment. At the end of the incubation period, relative cell viability was compared to vehicle controls using the Cell Titer Glo Assay (Promega, Madison Wis.), which measures viable cells based on ATP content, according to the manufacturer's specifications.

A549 = conditions: Homo sapiens, Lung
Procedure: as §1, §2, §3

HOP-62 = conditions: Homo sapiens, Lung
Procedure: as §1, §2, §3

HT29 = conditions: Homo sapiens, HT-29, Colon
Procedure: as §1, §2, §3

COL0205 = conditions: Homo sapiens, Colon
Procedure: as §1, §2, §3

M14 = conditions: Homo sapiens, Melanoma
Procedure: as §1, §2, §3

MCF-7 = conditions: Homo sapiens, MCF7, Breast
Procedure: as §1, §2, §3

T-47D = conditions: Homo sapiens, T47D, Breast
Procedure: as §1, §2, §3

NCI-ADR/RES = conditions: Homo sapiens; Other, NCI-ADR/RES (adriamycin resistant)
Procedure: as §1, §2, §3

Hs578T = conditions: Homo sapiens, Hs-578T, Breast
Procedure: as §1, §2, §3

HCT-15 = conditions: Homo sapiens, Colon
Procedure: as §1, §2, §3

SF-295 = conditions: Homo sapiens, CNS
Procedure: as §1, §2, §3

HCC-2998 = conditions: Homo sapiens, Colon
Procedure: as §1, §2, §3

MDA-MB-435 = conditions: Homo sapiens, Melanoma
Procedure: as §1, §2, §3

MDA-MB-231 = conditions: Homo sapiens, Breast
Procedure: as §1, §2, §3

NCI-H23 = conditions: Homo sapiens, Lung
Procedure: as §1, §2, §3

RPMI-8226 = conditions: Homo sapiens, Hematopoietic
Procedure: as §1, §2, §3

MDA-MB-468 = conditions: Homo sapiens, Breast
Procedure: as §1, §2, §3

OVCAR-5 = conditions: Homo sapiens, Ovarian
Procedure: as §1, §2, §3

UO-31 = conditions: Homo sapiens, Renal
Procedure: as §1, §2, §3

OVCAR-4 = conditions: Homo sapiens, Ovarian
Procedure: as §1, §2, §3

TK-10 = conditions: Homo sapiens, Renal
Procedure: as §1, §2, §3

NCI-H522 = conditions: Homo sapiens, Lung
Procedure: as §1, §2, §3

DU-145 = conditions: Homo sapiens, Prostate
Procedure: as §1, §2, §3

SN12C = conditions: Homo sapiens, Renal
Procedure: as §1, §2, §3

CAKI-1 = conditions: Homo sapiens, Renal
Procedure: as §1, §2, §3

HCT-116 = conditions: Homo sapiens, Colon
Procedure: as §1, §2, §3

OVCAR-8 = conditions: Homo sapiens, Ovarian
Procedure: as §1, §2, §3

SK-MEL-2 = conditions: Homo sapiens, Melanoma
Procedure: as §1, §2, §3

K562 = conditions: Homo sapiens, Hematopoietic
Procedure: as §1, §2, §3

NCI-H460 = conditions: Homo sapiens, Lung
Procedure: as §1, §2, §3

SNB-75 = conditions: Homo sapiens, CNS
Procedure: as §1, §2, §3

SW-620 = conditions: Homo sapiens, Colon
Procedure: as §1, §2, §3

UACC-62 = conditions: Homo sapiens, Melanoma
Procedure: as §1, §2, §3

SF-268 = conditions: Homo sapiens, CNS
Procedure: as §1, §2, §3

BT-549 = conditions: Homo sapiens, Breast
Procedure: as §1, §2, §3

A498 = conditions: Homo sapiens, Renal
Procedure: as §1, §2, §3

UACC-257 = conditions: Homo sapiens, Melanoma
Procedure: as §1, §2, §3

KM12 = conditions: Homo sapiens, Colon
Procedure: as §1, §2, §3

SNB-19 = conditions: Homo sapiens, CNS
Procedure: as §1, §2, §3

SKOV-3 = conditions: Homo sapiens, SK-OV-3, Ovarian
Procedure: as §1, §2, §3

SK-MEL-28 = conditions: Homo sapiens, Melanoma
Procedure: as §1, §2, §3

SF-539 = conditions: Homo sapiens, CNS
Procedure: as §1, §2, §3

786-0 = conditions: Homo sapiens, Renal
Procedure: as §1, §2, §3

CC(C)(C)C1=NN(c2ccc(C(=O)O)cc2)C(c2ccc(Cl)cc2Cl)C1 (centres unmarked) [Compound 12, 4-(3-(tert-Butyl)-5-(2,4-dichlorophenyl)-4,5-dihydro-1H-pyrazol-1-yl)benzoic acid]
IC50 (PC-3): 55.1 µM
IC50 (A549): 58 µM
IC50 (HOP-62): 37.4 µM
IC50 (HT29): 29.8 µM
IC50 (COL0205): 31.3 µM
IC50 (M14): 62.9 µM
IC50 (MCF-7): 52.4 µM
IC50 (T-47D): 63 µM
IC50 (NCI-ADR/RES): 57.2 µM
IC50 (Hs578T): 48.9 µM
IC50 (HCT-15): 40.3 µM
IC50 (SF-295): 45.8 µM
IC50 (HCC-2998): 41.9 µM
IC50 (MDA-MB-435): 50.8 µM
IC50 (MDA-MB-231): 64.4 µM
IC50 (NCI-H23): 40.6 µM
IC50 (RPMI-8226): 23.2 µM
IC50 (MDA-MB-468): 58.5 µM
IC50 (OVCAR-5): 59.4 µM
IC50 (UO-31): 55.7 µM
IC50 (OVCAR-4): 54.9 µM
IC50 (TK-10): 74 µM
IC50 (NCI-H522): 50.4 µM
IC50 (DU-145): 59.6 µM
IC50 (SN12C): 50 µM
IC50 (CAKI-1): 87 µM
IC50 (HCT-116): 39 µM
IC50 (OVCAR-8): 45.8 µM
IC50 (SK-MEL-2): 44.5 µM
IC50 (K562): 33.2 µM
IC50 (NCI-H460): 42.9 µM
IC50 (SNB-75): 67.8 µM
IC50 (SW-620): 51.8 µM
IC50 (UACC-62): 42.3 µM
IC50 (SF-268): 41.1 µM
IC50 (BT-549): 54.7 µM
IC50 (A498): 33 µM
IC50 (UACC-257): 70 µM
IC50 (KM12): 34.7 µM
IC50 (SNB-19): 52.8 µM
IC50 (SKOV-3): 87.4 µM
IC50 (SK-MEL-28): 72.4 µM
IC50 (SF-539): 52.9 µM
IC50 (786-0): 46.4 µM
